Values of other authors, collected in patent publication US20240366545A1, “ANTIBACTERIAL PORPHYRIN NANOPARTICLES AND METHODS FOR MAKING AND USING THE SAME” (priority 2021, published 2024).

Tested on: normal mammalian cells

For CCCCCCCCCCCCCCCC[N+](C)(C)C.[Br-] [CTAB, cetyl trimethylammonium bromide], the toxic concentration is listed as ≥ 10 µM.
